Data: article PMC11062899, “De novo development of small cyclic peptides that are orally bioavailable” (Nature Chemical Biology, 2023)
“And” between values parts separate entries of the source, which are not always exact repeats. Identical values can stand only once. Like-named read-outs stand apart in the source and are kept apart here.

Key:
rat α-thrombin = molecular target: T1, rat α-thrombin (Rattus norvegicus, UniProt P18292); assay: Protease inhibition, Ki for rat α-thrombin (fluorogenic substrate Z-Gly-Gly-Arg-AMC); format: biochemical; settings: rat alpha thrombin; for Slope normalized to DMSO (proteolytic substrate cleavage over time): replicates R1-R3
T1 construct: rat α-thrombin (Molecular Innovations) were used at final concentrations of 2 nM and 3 nM; purchased Molecular Innovations
Outline: (§1)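 Ki derived through Cheng–Prusoff from IC50s (four-parameter logistic fit) against activity of peptide-free controls. Product fluorescence was read every 3 min over 30 min at 25 °C, substrate Z-Gly-Gly-Arg-AMC at 50 μM. Enzyme was 2 nM human or 3 nM rat α-thrombin, pH 7.4 buffer.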

human α-thrombin = human α-thrombin (Homo sapiens, UniProt P00734); assay: Protease inhibition, Ki for human α-thrombin (fluorogenic substrate Z-Gly-Gly-Arg-AMC); format: biochemical; settings: human alpha thrombin; for Slope normalized to DMSO (proteolytic substrate cleavage over time): replicates R1-R3
Outline: as §1

[1] = Passive artificial membrane permeability (PAMPA)
porcine pepsin = molecular target: T2, porcine pepsin (Sus scrofa, UniProt P00791); assay: Peptide stability in simulated gastric fluid (SGF); format: in vitro ADME
T2 construct: 0.32 g of porcine pepsin (Sigma-Aldrich, P7125) was dissolved under gentle agitation; purchased Sigma-Aldrich P7125
T2 sequence (P00791 60-385): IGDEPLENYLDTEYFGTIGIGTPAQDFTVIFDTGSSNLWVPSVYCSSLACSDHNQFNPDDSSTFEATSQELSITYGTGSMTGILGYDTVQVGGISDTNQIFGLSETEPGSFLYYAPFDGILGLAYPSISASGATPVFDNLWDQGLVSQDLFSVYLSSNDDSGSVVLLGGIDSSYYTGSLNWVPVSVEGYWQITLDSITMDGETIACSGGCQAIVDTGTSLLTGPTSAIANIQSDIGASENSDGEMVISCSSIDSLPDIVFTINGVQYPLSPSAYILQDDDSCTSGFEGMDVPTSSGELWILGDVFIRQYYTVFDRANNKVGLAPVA
Outline: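 Peptide from a 1 mM DMSO stock was added to fluid pre-warmed at 37 °C. SGF was pH 1.2 NaCl with porcine pepsin (0.32 g per 100 ml), and SIF was pH 6.8 potassium phosphate with porcine pancreatin (1 g per 100 ml). Supernatant peptide was quantified by LC–MS, with residual expressed as T1/T0.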

[2] = Metabolic stability in rat liver microsomes (RLMs); settings: for microsomal CLint / half-life: rat

Ki (rat α-thrombin; average of R1-R3, read-out: Ki Average, rat alpha thrombin inhibition): 183 nM
Slope normalized to DMSO (proteolytic substrate cleavage over time) (rat α-thrombin; peptide 1.02E-03 uM): 99.2 and 100.9 and 93.8
Slope normalized to DMSO (proteolytic substrate cleavage over time) (rat α-thrombin; peptide 1.04E+00 uM): 29.7 and 30.1 and 28.1
Slope normalized to DMSO (proteolytic substrate cleavage over time) (rat α-thrombin; peptide 1.27E-04 uM): 101.2 and 100.0 and 97.1
Slope normalized to DMSO (proteolytic substrate cleavage over time) (rat α-thrombin; peptide 1.30E-01 uM): 74.9 and 71.7 and 69.9
Slope normalized to DMSO (proteolytic substrate cleavage over time) (rat α-thrombin; peptide 1.59E-05 uM): 103.1 and 102.5 and 98.1
Slope normalized to DMSO (proteolytic substrate cleavage over time) (rat α-thrombin; peptide 1.63E-02 uM): 92.3 and 92.5 and 97.9
Slope normalized to DMSO (proteolytic substrate cleavage over time) (rat α-thrombin; peptide 1.67E+01 uM): 5.4 and 8.1 and 5.8
Slope normalized to DMSO (proteolytic substrate cleavage over time) (rat α-thrombin; peptide 2.03E-03 uM): 98.5 and 94.4 and 93.1
Slope normalized to DMSO (proteolytic substrate cleavage over time) (rat α-thrombin; peptide 2.08E+00 uM): 20.1 and 19.4 and 16.8
Slope normalized to DMSO (proteolytic substrate cleavage over time) (rat α-thrombin; peptide 2.54E-04 uM): 119.5 and 99.6 and 95.9
Slope normalized to DMSO (proteolytic substrate cleavage over time) (rat α-thrombin; peptide 2.60E-01 uM): 60.8 and 61.1 and 58.9
Slope normalized to DMSO (proteolytic substrate cleavage over time) (rat α-thrombin; peptide 3.18E-05 uM): 100.8 (2×) and 96.5
Slope normalized to DMSO (proteolytic substrate cleavage over time) (rat α-thrombin; peptide 3.26E-02 uM): 86.1 and 87.0 and 83.0
Slope normalized to DMSO (proteolytic substrate cleavage over time) (rat α-thrombin; peptide 3.33E+01 uM): 5.3 (2×) and 6.5
Slope normalized to DMSO (proteolytic substrate cleavage over time) (rat α-thrombin; peptide 4.07E-03 uM): 93.9 and 97.5 and 93.1
Slope normalized to DMSO (proteolytic substrate cleavage over time) (rat α-thrombin; peptide 4.17E+00 uM): 12.5 and 13.2 and 11.9
Slope normalized to DMSO (proteolytic substrate cleavage over time) (rat α-thrombin; peptide 5.09E-04 uM): 99.8 and 101.3 and 106.4
Slope normalized to DMSO (proteolytic substrate cleavage over time) (rat α-thrombin; peptide 5.21E-01 uM): 39.6 and 40.5 and 38.3
Slope normalized to DMSO (proteolytic substrate cleavage over time) (rat α-thrombin; peptide 6.36E-05 uM): 100.0 and 99.8 and 96.8
Slope normalized to DMSO (proteolytic substrate cleavage over time) (rat α-thrombin; peptide 6.51E-02 uM): 90.0 and 82.1 and 78.1
Slope normalized to DMSO (proteolytic substrate cleavage over time) (rat α-thrombin; peptide 6.67E+01 uM): 6.2 and 7.3 and 4.1
Slope normalized to DMSO (proteolytic substrate cleavage over time) (rat α-thrombin; peptide 7.95E-06 uM): 105.8 and 104.8 and 99.9
Slope normalized to DMSO (proteolytic substrate cleavage over time) (rat α-thrombin; peptide 8.14E-03 uM): 96.3 and 93.4 and 96.8
Slope normalized to DMSO (proteolytic substrate cleavage over time) (rat α-thrombin; peptide 8.33E+00 uM): 9.2 and 9.9 and 7.4
IC50 (rat α-thrombin; single replicates R1-R3, read-out: IC50, rat alpha thrombin inhibition): 339 nM and 326 nM (2×)
Ki (human α-thrombin; average of R1-R3, read-out: Ki Average, human alpha thrombin inhibition): 608 nM
Slope normalized to DMSO (proteolytic substrate cleavage over time) (human α-thrombin; peptide 1.02E-03 uM): 102.8 and 91.6 and 92.3
Slope normalized to DMSO (proteolytic substrate cleavage over time) (human α-thrombin; peptide 1.04E+00 uM): 41.6 and 46.5 and 44.1
Slope normalized to DMSO (proteolytic substrate cleavage over time) (human α-thrombin; peptide 1.27E-04 uM): 104.6 and 98.9 and 94.9
Slope normalized to DMSO (proteolytic substrate cleavage over time) (human α-thrombin; peptide 1.30E-01 uM): 89.0 and 82.0 and 80.6
Slope normalized to DMSO (proteolytic substrate cleavage over time) (human α-thrombin; peptide 1.59E-05 uM): 106.7 and 95.1 and 97.4
Slope normalized to DMSO (proteolytic substrate cleavage over time) (human α-thrombin; peptide 1.63E-02 uM): 99.4 and 97.2 and 88.2
Slope normalized to DMSO (proteolytic substrate cleavage over time) (human α-thrombin; peptide 2.03E-03 uM): 103.4 and 94.4 and 88.8
Slope normalized to DMSO (proteolytic substrate cleavage over time) (human α-thrombin; peptide 2.08E+00 uM): 29.1 and 35.9 and 29.9
Slope normalized to DMSO (proteolytic substrate cleavage over time) (human α-thrombin; peptide 2.54E-04 uM): 103.3 and 99.1 and 91.3
Slope normalized to DMSO (proteolytic substrate cleavage over time) (human α-thrombin; peptide 2.60E-01 uM): 77.6 and 74.7 and 72.2
Slope normalized to DMSO (proteolytic substrate cleavage over time) (human α-thrombin; peptide 3.18E-05 uM): 106.8 and 94.8 and 91.3
Slope normalized to DMSO (proteolytic substrate cleavage over time) (human α-thrombin; peptide 3.26E-02 uM): 96.6 and 90.1 and 84.7
Slope normalized to DMSO (proteolytic substrate cleavage over time) (human α-thrombin; peptide 4.07E-03 uM): 86.5 and 95.5 and 89.4
Slope normalized to DMSO (proteolytic substrate cleavage over time) (human α-thrombin; peptide 4.17E+00 uM): 17.9 and 25.7 and 18.3
Slope normalized to DMSO (proteolytic substrate cleavage over time) (human α-thrombin; peptide 5.21E-01 uM): 60.8 and 59.2 and 52.4
Slope normalized to DMSO (proteolytic substrate cleavage over time) (human α-thrombin; peptide 6.36E-05 uM): 98.6 and 95.0 and 94.0
Slope normalized to DMSO (proteolytic substrate cleavage over time) (human α-thrombin; peptide 6.51E-02 uM): 91.4 and 89.0 and 83.1
IC50 (human α-thrombin; single replicates R1-R3, read-out: IC50, human alpha thrombin inhibition): 700 nM and 850 nM and 816 nM
Ki (human α-thrombin; single replicates R1-R3, read-out: Ki, human alpha thrombin inhibition): 540 nM and 655 nM and 629 nM
PAMPA permeability: % permeability ([1]; 50 μM, 12–18 h, acceptor concentration relative to equilibrium): 47 ± 3%
Papp at 50 μM ([1]; PAMPA, pH 7.4): 6.17 ×10⁻⁶ cm/s
Permeability% Average ([1]; top well sample vs theoretical equilibrium sample (TIC), average of R1-R3): 46.6%
Permeability% ([1]; top well sample vs theoretical equilibrium sample (TIC), single replicates R1-R3): 44.27% and 50.38% and 45.09%
SGF stability, Residual peptide Average (porcine pepsin; after 8 h vs 0 h (TIC), average of R1-R3): 92.45
SGF stability, Residual peptide (porcine pepsin; after 8 h vs 0 h (TIC), single replicates R1-R3): 99.51 and 90.02 and 87.82
remaining at 8 h (porcine pepsin; simulated gi fluid, 8 h, 37 °C, pH 1.2, read-out: Proteolytic stability: SGF (8 h) % remaining): 92 ± 6%
TIC value of compound, 0 min, R1 ([2]; rat liver microsomes, 0 min, replicate R1): 21675652
TIC value of compound, 0 min, R3 ([2]; rat liver microsomes, 0 min, replicate R3): 21375886
TIC value of compound, 5 min, R1 ([2]; rat liver microsomes, 5 min, replicate R1): 16129690
TIC value of compound, 5 min, R3 ([2]; rat liver microsomes, 5 min, replicate R3): 21185792
TIC value of compound, 15 min, R1 ([2]; rat liver microsomes, 15 min, replicate R1): 14173175
TIC value of compound, 15 min, R3 ([2]; rat liver microsomes, 15 min, replicate R3): 14991116
TIC value of compound, 30 min, R1 ([2]; rat liver microsomes, 30 min, replicate R1): 10634659
TIC value of compound, 30 min, R3 ([2]; rat liver microsomes, 30 min, replicate R3): 9842710
TIC value of compound, 60 min, R1 ([2]; rat liver microsomes, 60 min, replicate R1): 4587256
TIC value of compound, 60 min, R3 ([2]; rat liver microsomes, 60 min, replicate R3): 4284596
microsomal CLint ([2]; CL (ul/min/mg protein), R1, RLM CL, replicate R1, unrounded): 53.6 µL/min/mg
microsomal CLint ([2]; CL (ul/min/mg protein), R2, RLM CL, replicate R2, unrounded): 48.6 µL/min/mg
microsomal CLint ([2]; CL (ul/min/mg protein), R3, RLM CL, replicate R3, unrounded): 49.4 µL/min/mg
half-life ([2]; Half Life (min), R1, RLM metabolic stability, replicate R1): 25.9 min
half-life ([2]; Half Life (min), R2, RLM metabolic stability, replicate R2): 28.5 min
half-life ([2]; Half Life (min), R3, RLM metabolic stability, replicate R3): 28 min
half-life ([2]; microsomes, Metabolic stability: Half life T1/2 (min), RLMs, mean and SD, three measurements): 27 ± 1 min
microsomal CLint ([2]; microsomes, Metabolic stability: RLM CL (ul/min/mg), RLMs, mean and SD, three measurements): 51 ± 2 µL/min/mg
microsomal CLint ([2]; microsomes, RLM CL, Average, average of R1-R3): 50.6 µL/min/mg
microsomal CLint ([2]; microsomes, RLM CL, R1, RLM CL, replicate R1, summary block): 53.6 µL/min/mg
microsomal CLint ([2]; microsomes, RLM CL, R2, RLM CL, replicate R2, summary block): 48.6 µL/min/mg
microsomal CLint ([2]; microsomes, RLM CL, R3, RLM CL, replicate R3, summary block): 49.4 µL/min/mg
Structure (SMILES): O=C1C[C@H]2CCCN2C(=O)[C@H](Cc2ccccc2)NC(=O)[C@@H](NC(=O)c2ccc(Cl)s2)CSCc2cccc(n2)CSCCN1 [compound 31]
Ki (rat α-thrombin; single replicates R1-R3, read-out: Ki, rat alpha thrombin inhibition): 188 nM (2×) and 181 nM (2×) and 180 nM (2×)
